Test results reported in publication PMC9329436, “Optimization of the 4-anilinoquin(az)oline scaffold as epidermal growth factor receptor (EGFR) inhibitors for chordoma utilizing a toxicology profiling assay platform” (Scientific Reports, 2022).
Where two headings read alike, the source gives them in different places.

Tests used:
Format in all cases: biochemical
[1] = molecular target: 320 wild-type protein kinases (Homo sapiens, UniProt O60674); settings: singlicate
From the text: (§1) Table S4. Profiling of two compounds at two concentrations against 320 wild-type protein kinases; singlicate measurement; Residual activities (% of control).

[2] = molecular target: T1, 320 wild-type protein kinases (Homo sapiens, UniProt P25098); settings: singlicate
T1 sequence (P25098 1-689): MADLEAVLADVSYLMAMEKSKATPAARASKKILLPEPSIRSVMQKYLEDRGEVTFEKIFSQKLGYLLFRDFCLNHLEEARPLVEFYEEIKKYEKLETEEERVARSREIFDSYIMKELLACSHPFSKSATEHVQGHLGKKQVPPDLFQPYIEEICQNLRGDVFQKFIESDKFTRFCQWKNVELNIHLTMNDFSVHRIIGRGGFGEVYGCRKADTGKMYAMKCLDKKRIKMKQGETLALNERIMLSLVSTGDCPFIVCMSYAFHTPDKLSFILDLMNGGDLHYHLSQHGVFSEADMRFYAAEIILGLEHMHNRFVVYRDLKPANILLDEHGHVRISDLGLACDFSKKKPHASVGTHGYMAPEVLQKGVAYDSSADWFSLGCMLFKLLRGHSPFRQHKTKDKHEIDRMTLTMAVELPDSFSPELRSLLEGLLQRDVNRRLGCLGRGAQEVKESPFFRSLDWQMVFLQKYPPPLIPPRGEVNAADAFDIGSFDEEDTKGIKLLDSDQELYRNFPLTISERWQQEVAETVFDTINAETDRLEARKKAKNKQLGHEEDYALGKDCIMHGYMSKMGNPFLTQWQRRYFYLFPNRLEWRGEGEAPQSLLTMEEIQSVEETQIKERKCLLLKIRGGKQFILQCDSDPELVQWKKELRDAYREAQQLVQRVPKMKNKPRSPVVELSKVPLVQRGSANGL
From the text: as §1

[3] = molecular target: T2, 320 wild-type protein kinases (Homo sapiens, UniProt O15264); settings: p38-delta, singlicate
T2 sequence (O15264 1-365): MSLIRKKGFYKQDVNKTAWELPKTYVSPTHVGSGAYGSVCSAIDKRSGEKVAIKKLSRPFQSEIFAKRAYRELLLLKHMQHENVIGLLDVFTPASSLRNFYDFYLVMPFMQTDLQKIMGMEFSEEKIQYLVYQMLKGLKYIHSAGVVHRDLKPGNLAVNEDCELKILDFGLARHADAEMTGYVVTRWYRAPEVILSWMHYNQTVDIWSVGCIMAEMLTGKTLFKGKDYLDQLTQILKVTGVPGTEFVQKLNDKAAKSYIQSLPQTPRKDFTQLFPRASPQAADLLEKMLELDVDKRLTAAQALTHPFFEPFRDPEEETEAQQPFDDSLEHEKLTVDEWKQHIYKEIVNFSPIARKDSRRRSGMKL
From the text: as §1

[4] = molecular target: T3, 320 wild-type protein kinases (Homo sapiens, UniProt O94806); settings: PKC-nu, singlicate
T3 sequence (O94806 1-890): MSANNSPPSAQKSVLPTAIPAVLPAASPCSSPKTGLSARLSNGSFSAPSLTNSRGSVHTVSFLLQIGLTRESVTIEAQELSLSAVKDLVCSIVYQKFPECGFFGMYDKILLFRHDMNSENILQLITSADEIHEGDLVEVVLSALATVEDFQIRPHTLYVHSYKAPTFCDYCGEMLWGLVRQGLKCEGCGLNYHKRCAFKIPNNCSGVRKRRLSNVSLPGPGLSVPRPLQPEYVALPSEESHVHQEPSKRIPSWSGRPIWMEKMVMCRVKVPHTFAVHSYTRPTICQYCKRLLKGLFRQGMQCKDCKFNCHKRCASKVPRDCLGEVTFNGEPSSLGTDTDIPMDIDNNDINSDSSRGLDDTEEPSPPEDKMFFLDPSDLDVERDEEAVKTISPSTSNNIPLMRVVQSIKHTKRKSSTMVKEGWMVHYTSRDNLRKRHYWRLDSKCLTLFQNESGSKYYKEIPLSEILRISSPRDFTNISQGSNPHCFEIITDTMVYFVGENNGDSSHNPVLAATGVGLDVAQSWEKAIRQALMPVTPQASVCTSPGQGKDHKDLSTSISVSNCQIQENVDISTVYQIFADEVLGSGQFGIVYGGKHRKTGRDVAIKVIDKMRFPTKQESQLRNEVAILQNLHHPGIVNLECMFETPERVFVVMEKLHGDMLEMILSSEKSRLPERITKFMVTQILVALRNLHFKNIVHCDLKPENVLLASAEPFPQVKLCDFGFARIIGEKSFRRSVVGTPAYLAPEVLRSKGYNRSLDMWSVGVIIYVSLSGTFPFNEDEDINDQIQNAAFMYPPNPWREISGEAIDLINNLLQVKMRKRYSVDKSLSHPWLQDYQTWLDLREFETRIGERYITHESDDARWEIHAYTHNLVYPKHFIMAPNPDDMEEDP
From the text: as §1

Sequence of 320 wild-type protein kinases (Homo sapiens, UniProt O60674) (O60674 whole entry): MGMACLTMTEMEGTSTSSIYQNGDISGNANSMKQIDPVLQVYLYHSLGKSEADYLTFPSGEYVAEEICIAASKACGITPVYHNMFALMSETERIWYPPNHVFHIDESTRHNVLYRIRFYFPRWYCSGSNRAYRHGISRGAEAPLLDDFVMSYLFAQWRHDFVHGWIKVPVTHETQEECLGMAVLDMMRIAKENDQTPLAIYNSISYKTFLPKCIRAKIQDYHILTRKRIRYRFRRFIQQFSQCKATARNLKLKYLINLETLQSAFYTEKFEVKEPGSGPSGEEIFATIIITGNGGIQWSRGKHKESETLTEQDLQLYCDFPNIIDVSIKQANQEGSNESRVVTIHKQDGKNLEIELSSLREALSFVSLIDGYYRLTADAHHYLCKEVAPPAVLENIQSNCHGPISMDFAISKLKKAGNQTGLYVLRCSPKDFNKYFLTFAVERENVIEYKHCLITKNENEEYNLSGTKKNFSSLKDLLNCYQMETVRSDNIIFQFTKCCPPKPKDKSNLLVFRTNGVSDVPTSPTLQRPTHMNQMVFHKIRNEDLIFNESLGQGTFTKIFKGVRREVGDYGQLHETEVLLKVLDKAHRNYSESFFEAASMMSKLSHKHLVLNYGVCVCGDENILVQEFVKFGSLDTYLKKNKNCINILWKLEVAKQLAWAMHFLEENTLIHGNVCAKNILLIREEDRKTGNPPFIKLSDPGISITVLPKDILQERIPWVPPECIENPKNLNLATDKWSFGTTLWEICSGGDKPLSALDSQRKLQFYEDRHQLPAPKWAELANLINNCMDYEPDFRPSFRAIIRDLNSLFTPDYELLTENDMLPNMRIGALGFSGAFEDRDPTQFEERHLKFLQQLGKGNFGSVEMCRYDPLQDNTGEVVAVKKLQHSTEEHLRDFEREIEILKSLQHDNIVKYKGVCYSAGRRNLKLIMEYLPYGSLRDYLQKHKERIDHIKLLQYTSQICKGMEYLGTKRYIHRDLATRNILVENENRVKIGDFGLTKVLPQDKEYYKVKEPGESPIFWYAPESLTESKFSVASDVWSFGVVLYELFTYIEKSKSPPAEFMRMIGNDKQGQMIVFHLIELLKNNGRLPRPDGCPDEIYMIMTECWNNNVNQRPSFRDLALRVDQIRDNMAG

| Structure (SMILES) | Residual activity ([1]; JAK2, 1.0E-06 M) | Residual activity ([1]; JAK2, 1.0E-07 M) | Residual activity ([2]; GRK2, 1.0E-06 M) | Residual activity ([2]; GRK2, 1.0E-07 M) | Residual activity ([3]; 1.0E-06 M) | Residual activity ([3]; 1.0E-07 M) | Residual activity ([4]; 1.0E-06 M) | Residual activity ([4]; 1.0E-07 M) |
| --- | --- | --- | --- | --- | --- | --- | --- | --- |
| C#Cc1cc(Nc2ncnc3cc(I)ccc23)ccc1Cl [Compound 41] | 98 % of control | 105 % of control | 117 % of control | 104 % of control | 94 % of control | 112 % of control | 86 % of control | 87 % of control |
| C#Cc1cc(Nc2ncnc3cc(OC)c(OC)cc23)ccc1Cl [Compound 45] | 92 % of control | 102 % of control | 111 % of control | 96 % of control | 94 % of control | 111 % of control | 84 % of control | 99 % of control |
